Laboratory results: patent US20210045385A1, “PYRIDAZINONE-SUBSTITUTED KETOXIMES AS HERBICIDES” (FMC Corporation, priority 2018, published 2021)

What was measured:
Assay type in all cases: in vivo
[1] = system: pigweed (Amaranthus retroflexus); assay: Test C postemergence, visual plant response rating
Summary of the method: (§1)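 Visual injury on a 0 (no effect) to 100 (complete control) scale versus untreated controls, scored approximately 10 d after treatment under greenhouse conditions. Treatments used surfactant-containing non-phytotoxic solvent formulations, sprayed onto loam–sand soil preemergence or onto one- to two-leaf plants 2–10 cm tall postemergence.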

corn (Zea mays) = assay: Test C postemergence, visual plant response rating
Summary of the method: as §1

[2] = system: galium (catchweed bedstraw, Galium aparine); assay: Test C postemergence, visual plant response rating
Summary of the method: as §1

[3] = system: Italian ryegrass (Lolium mutiflorum); assay: Test C postemergence, visual plant response rating
Summary of the method: as §1

[4] = system: ragweed (common ragweed, Ambrosia artemisiifolia); assay: Test C postemergence, visual plant response rating
Summary of the method: as §1

[5] = system: foxtail, giant (giant foxtail, Setaria faberi); assay: Test C postemergence, visual plant response rating
Summary of the method: as §1

[6] = system: wheat (Triticum aestivum); assay: Test C postemergence, visual plant response rating
Summary of the method: as §1

[7] = system: barnyardgrass (Echinochloa crus-galli); assay: Test C postemergence, visual plant response rating
Summary of the method: as §1

kochia (Bassia scoparia) [8] = assay: Test C postemergence, visual plant response rating
Summary of the method: as §1

[9] = system: blackgrass (Alopecurus myosuroides); assay: Test C postemergence, visual plant response rating
Summary of the method: as §1

rice (Oryza sativa) = assay: Test D flooded paddy test, visual plant response rating; conditions: 250 g ai/ha, scale 0 to 100 (0 no effect, 100 complete control), 13 to 15 d
Summary of the method: (§2)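 Visual injury scores, 0 (no effect) to 100 (complete control), were assigned after 13 to 15 d in the greenhouse by comparison with controls. Test compounds had been added to paddy water covering soil by 3 cm at the 2-leaf stage.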

[10] = system: sedge umbrella (small-flower umbrella sedge, Cyperus difformis); assay: as above; conditions: 250 g ai/ha, scale 0 to 100 (0 no effect, 100 complete control), 13 to 15 d
Summary of the method: as §2

[11] = system: barnyardgrass (Echinochloa crus-galli); assay: as above; conditions: 250 g ai/ha, scale 0 to 100 (0 no effect, 100 complete control), 13 to 15 d
Summary of the method: as §2

[12] = system: duck salad (Heteranthera limosa); assay: as above; conditions: 250 g ai/ha, scale 0 to 100 (0 no effect, 100 complete control), 13 to 15 d
Summary of the method: as §2

[13] = system: pigweed (Amaranthus retroflexus); assay: Test C preemergence, visual plant response rating
Summary of the method: as §1

[14] = system: Italian ryegrass (Lolium mutiflorum); assay: Test C preemergence, visual plant response rating
Summary of the method: as §1

[15] = system: ragweed (common ragweed, Ambrosia artemisiifolia); assay: Test C preemergence, visual plant response rating
Summary of the method: as §1

[16] = system: foxtail, giant (giant foxtail, Setaria faberi); assay: Test C preemergence, visual plant response rating
Summary of the method: as §1

[17] = system: barnyardgrass (Echinochloa crus-galli); assay: Test C preemergence, visual plant response rating
Summary of the method: as §1

kochia (Bassia scoparia) [18] = assay: Test C preemergence, visual plant response rating
Summary of the method: as §1

[19] = Test C, postemergence, 125 g ai/ha
[20] = Test C, 31 g ai/ha, 0 is no effect, 100 is complete control
[21] = Test C, 125 g ai/ha, 0 is no effect, 100 is complete control

SMILES | Pigweed plant response rating (0 to 100 scale) ([1]; Postemergence, 31 g ai/ha) | Pigweed plant response rating (0 to 100 scale) [1, 19] | Corn plant response rating (0 to 100 scale) (corn (Zea mays); Postemergence, 31 g ai/ha) | Corn plant response rating (0 to 100 scale) (corn (Zea mays); [19]) | Galium plant response rating (0 to 100 scale) ([2]; Postemergence, 31 g ai/ha) | Galium plant response rating (0 to 100 scale) [2, 19] | Ryegrass, Italian plant response rating (0 to 100 scale) ([3]; Postemergence, 31 g ai/ha) | Ryegrass, Italian plant response rating (0 to 100 scale) [3, 19] | Ragweed plant response rating (0 to 100 scale) ([4]; Postemergence, 31 g ai/ha) | Ragweed plant response rating (0 to 100 scale) [4, 19] | Foxtail, Giant plant response rating (0 to 100 scale) ([5]; Postemergence, 31 g ai/ha) | Foxtail, Giant plant response rating (0 to 100 scale) [5, 19] | Wheat plant response rating (0 to 100 scale) ([6]; Postemergence, 31 g ai/ha) | Wheat plant response rating (0 to 100 scale) [6, 19] | Barnyardgrass plant response rating (0 to 100 scale) ([7]; Postemergence, 31 g ai/ha) | Barnyardgrass plant response rating (0 to 100 scale) [7, 19] | Kochia plant response rating (0 to 100 scale) (kochia (Bassia scoparia) [8]; Postemergence, 31 g ai/ha) | Kochia plant response rating (0 to 100 scale) (kochia (Bassia scoparia) [8]; [19]) | Blackgrass plant response rating (0 to 100 scale) ([9]; Postemergence, 31 g ai/ha) | Blackgrass plant response rating (0 to 100 scale) [9, 19] | also measured
Cc1nn(C)c(=O)c(/C(=N\OC(C)C)c2cccc3cc(Cl)ccc23)c1O [Compound 241] | 80 | 90 | 10 | 0 | 90 | 100 | 0 | 0 | 80 | 100 | 70 | 80 | 0 | 0 | 30 | 60 | 0 | 20 | 20 | 40 | Plant response rating, Rice (Flood) (rice (Oryza sativa)): 85; Plant response rating, Sedge, Umbrella (Flood) [10]: 95; Plant response rating, Barnyardgrass (Flood) [11]: 90; Plant response rating, Ducksalad (Flood) [12]: 85; Pigweed plant response rating (0 to 100 scale) [13, 20]: 90; Pigweed plant response rating (0 to 100 scale) [13, 21]: 100; Ryegrass, Italian plant response rating (0 to 100 scale) [14, 20]: 0; Ryegrass, Italian plant response rating (0 to 100 scale) [14, 21]: 0; Ragweed plant response rating (0 to 100 scale) [15, 20]: 40; Ragweed plant response rating (0 to 100 scale) [15, 21]: 10; Foxtail, Giant plant response rating (0 to 100 scale) [16, 20]: 80; Foxtail, Giant plant response rating (0 to 100 scale) [16, 21]: 90; Barnyardgrass plant response rating (0 to 100 scale) [17, 20]: 10; Barnyardgrass plant response rating (0 to 100 scale) [17, 21]: 60; Kochia plant response rating (0 to 100 scale) (kochia (Bassia scoparia) [18]; [20]): 0; Kochia plant response rating (0 to 100 scale) (kochia (Bassia scoparia) [18]; [21]): 0
CO/N=C(\c1cc(F)cc(C)c1F)c1c(O)c(C)nn(C)c1=O [Compound 193] | 40 | 80 | 0 | 10 | 80 | 90 | 40 | 70 | 70 | 70 | 40 | 50 | 0 | 0 | 20 | 50 | 60 | 70 | 20 | 50 | Plant response rating, Rice (Flood) (rice (Oryza sativa)): 0; Plant response rating, Sedge, Umbrella (Flood) [10]: 0; Plant response rating, Barnyardgrass (Flood) [11]: 0; Plant response rating, Ducksalad (Flood) [12]: 0; Pigweed plant response rating (0 to 100 scale) [13, 20]: 50; Pigweed plant response rating (0 to 100 scale) [13, 21]: 90; Ryegrass, Italian plant response rating (0 to 100 scale) [14, 20]: 30; Ryegrass, Italian plant response rating (0 to 100 scale) [14, 21]: 80; Ragweed plant response rating (0 to 100 scale) [15, 20]: 30; Ragweed plant response rating (0 to 100 scale) [15, 21]: 60; Foxtail, Giant plant response rating (0 to 100 scale) [16, 20]: 30; Foxtail, Giant plant response rating (0 to 100 scale) [16, 21]: 80; Barnyardgrass plant response rating (0 to 100 scale) [17, 20]: 30; Barnyardgrass plant response rating (0 to 100 scale) [17, 21]: 60; Kochia plant response rating (0 to 100 scale) (kochia (Bassia scoparia) [18]; [20]): 10; Kochia plant response rating (0 to 100 scale) (kochia (Bassia scoparia) [18]; [21]): 70
CO/N=C(/c1cc(Cl)cc(OC)c1)c1c(O)c(C)nn(C)c1=O [Compound 165] | 40 | 70 | 0 | 20 | 100 | 100 | 70 | 100 | 80 | 100 | 20 | 70 | 0 | 30 | 40 | 80 | 90 | 90 | 20 | 40 | Plant response rating, Rice (Flood) (rice (Oryza sativa)): 0; Plant response rating, Sedge, Umbrella (Flood) [10]: 0; Plant response rating, Barnyardgrass (Flood) [11]: 0; Plant response rating, Ducksalad (Flood) [12]: 0; Pigweed plant response rating (0 to 100 scale) ([13]; 125 g ai/ha): 20; Pigweed plant response rating (0 to 100 scale) [13, 20]: 0; Ryegrass, Italian plant response rating (0 to 100 scale) ([14]; 125 g ai/ha): 100; Ryegrass, Italian plant response rating (0 to 100 scale) [14, 20]: 80; Ragweed plant response rating (0 to 100 scale) ([15]; 125 g ai/ha): 90; Ragweed plant response rating (0 to 100 scale) [15, 20]: 50; Foxtail, Giant plant response rating (0 to 100 scale) ([16]; 125 g ai/ha): 70; Foxtail, Giant plant response rating (0 to 100 scale) [16, 20]: 60; Barnyardgrass plant response rating (0 to 100 scale) ([17]; 125 g ai/ha): 80; Barnyardgrass plant response rating (0 to 100 scale) [17, 20]: 60; Kochia plant response rating (0 to 100 scale) (kochia (Bassia scoparia) [18]; 125 g ai/ha): 100; Kochia plant response rating (0 to 100 scale) (kochia (Bassia scoparia) [18]; [20]): 80
CON=C(c1cc(Cl)cc(Cl)c1Cl)c1c(O)c(C)nn(C)c1=O [Compound 214] | 80 | 90 | 30 | 40 | 90 | 90 | 80 | 100 | 80 | 90 | 80 | 80 | 40 | 70 | 70 | 80 | 70 | 80 | 30 | 80 | Plant response rating, Rice (Flood) (rice (Oryza sativa)): 45; Plant response rating, Sedge, Umbrella (Flood) [10]: 70; Plant response rating, Barnyardgrass (Flood) [11]: 70; Plant response rating, Ducksalad (Flood) [12]: 70; Pigweed plant response rating (0 to 100 scale) [13, 20]: 80; Pigweed plant response rating (0 to 100 scale) [13, 21]: 100; Ryegrass, Italian plant response rating (0 to 100 scale) [14, 20]: 90; Ryegrass, Italian plant response rating (0 to 100 scale) [14, 21]: 100; Ragweed plant response rating (0 to 100 scale) [15, 20]: 20; Ragweed plant response rating (0 to 100 scale) [15, 21]: 100; Foxtail, Giant plant response rating (0 to 100 scale) [16, 20]: 80; Foxtail, Giant plant response rating (0 to 100 scale) [16, 21]: 100; Barnyardgrass plant response rating (0 to 100 scale) [17, 20]: 70; Barnyardgrass plant response rating (0 to 100 scale) [17, 21]: 90; Kochia plant response rating (0 to 100 scale) (kochia (Bassia scoparia) [18]; [20]): 20; Kochia plant response rating (0 to 100 scale) (kochia (Bassia scoparia) [18]; [21]): 70
